Reference: publication PMC6017805 (2018)

What was measured:
Assay in all cases: UV-Vis titration (D/Δεapp vs D plot)
Details in all cases: phosphate buffer 50 mM pH 7.4 (Figure 2; methods say 100 mM), 25 °C, 4a 50 μM
[1] = system: [Poly(dG)-Poly(dC)] (DNA, polymer) G/C
[2] = system: AT Box [Poly(dTATAAT)-Poly(dATATTA)] (DNA, polymer) TATAAT/ATTATA
[3] = system: [Poly(dA)-Poly(dT)] (DNA, polymer) A/T
[4] = system: GC Box [Poly(dGGGCGG)-Poly(dCCCGCC)] (DNA, polymer) GGGCGG/CCGCCC

Kb [1]: 1150 M⁻¹
Kb [2]: 9710 M⁻¹
Kb [3]: 9080 M⁻¹
Kb [4]: 1910 M⁻¹
Structure (SMILES): N[C@@H](CCCCN1C(=O)c2cccc3cccc(c23)C1=O)C(=O)NCCNC(=O)[C@@H](N)CCCCN1C(=O)c2cccc3cccc(c23)C1=O
